Source: US20260305610A1, “TRIAZOLE COMPOUND, AND PREPARATION METHOD THEREFOR, HERBICIDAL COMPOSITION AND USE THEREOF” (QINGDAO KINGAGROOT CHEMICAL COMPOUND CO., LTD., priority 2023, published 2026)

Test system: weeds
Experiment: Activity assay of compositions: soil sealing treatment (S), fresh weight inhibition and combined effect (Gowing method)
Type: in vivo
Conditions: 21 d
Procedure: The required active ingredient B was purchased from a reagent company or a technical material manufacturer or synthesized by a conventional method. The technical materials were all dissolved with acetone solvents and diluted with aqueous solution of 0.1% Tween-80 emulsifier, which should be used immediately after dilution.
• Weeds were cultivated in a controllable sunlight greenhouse at 20 to 30° C., in natural light, and with relative humidity of 57% to 72%. […] The test soil was quantitatively filled to ¾ of the pot, and then watered from the bottom of the pot to completely wet the soil to saturation. The test weed seeds were accelerated to just germinate, and then evenly and quantitatively broadcasted on the soil surface, covered with 0.5-1 cm soil according to the sizes of the seeds, and ready for use 72 hours after sowing.
Each treatment was repeated 4 times. Four pots with 20 weed seeds sowed per pot were treated each time.
The well-sowed test materials were evenly placed on a platform with an area of 0.5 m^2, and foliage spraying was carried out by the 3WP-2000-type walking spray tower at a dosage of 450 kg/ha and a spray pressure of 0.3 MPa. After all the solution was sprayed, the air valve was closed. And 30 seconds later, the door of the spray tower was opened, and the nutritional bowl was taken out. Next, the air valve was opened, and the spray tube was cleaned by spraying 50 ml of water.
A method for investigating absolute numbers was employed. Whole seedlings of survival weeds were cut off along the soil surface with a blade, and the fresh weight of the weeds was weighed using an analytical balance. For dead weeds, the fresh weight thereof was zero.
The investigation was performed 21 days after the treatment for once in total.
The theoretical fresh weight inhibition rate of a mixed combination of each treatment was calculated by the Gowing method (E0=X+Y−X*Y/100). Then compared with the measured inhibition rate (E), the type of the combined effect of the combination of the two on weeds was evaluated, which was a synergistic effect when E−E0>10%; an antagonistic effect when E−E0<−10%; an additional effect when −10%≤E−E0≤10%. An optimal ratio was determined according to factors such as the actual control effects, characteristics of herbicides, balance of the formulation, etc. In the formula, X represents the fresh weight inhibition rate of the active ingredient A in a dosage of P; Y represents the fresh weight inhibition rate of the active ingredient B in a dosage of Q. The statistical results are shown in Table 4.

[1] = Eclipta prostrata, B 150 g a.i./ha
[2] = Eclipta prostrata, B 300 g a.i./ha
[3] = Lolium temulentum, B 375 g a.i./ha
[4] = Lolium temulentum, B 750 g a.i./ha
[5] = Commelina communis, B 30 g a.i./ha
[6] = Commelina communis, B 60 g a.i./ha
[7] = Amaranthus retroflexus, B 15 g a.i./ha
[8] = Amaranthus retroflexus, B 30 g a.i./ha
[9] = Lolium multiflorum, B 30 g a.i./ha
[10] = Lolium multiflorum, B 60 g a.i./ha
[11] = Commelina communis, B 15 g a.i./ha
[12] = Eclipta prostrata, B 15 g a.i./ha
[13] = Eclipta prostrata, B 30 g a.i./ha
[14] = Eleocharis yokoscensis, B 150 g a.i./ha
[15] = Eleocharis yokoscensis, B 300 g a.i./ha
[16] = Eclipta prostrata, B 7.5 g a.i./ha
[17] = Eclipta prostrata, B 75 g a.i./ha
[18] = Silene conoidea, B 30 g a.i./ha
[19] = Silene conoidea, B 60 g a.i./ha

## CCCCOCN(C(=O)CCl)c1c(CC)cccc1CC [Butachlor]
[1]
  Control effect of B applied alone in a corresponding dose (%): 37.2%
[2]
  Control effect of B applied alone in a corresponding dose (%): 66.8%

## CCC(C)Nc1c([N+](=O)[O-])cc(C(C)(C)C)cc1[N+](=O)[O-] (centres unmarked) [Butralin]
[1]
  Control effect of B applied alone in a corresponding dose (%): 47.0%
[2]
  Control effect of B applied alone in a corresponding dose (%): 65.3%

## Cc1ccc(NC(=O)N(C)C)cc1Cl [Chlorotoluron]
[3]
  Control effect of B applied alone in a corresponding dose (%): 34.3%
[4]
  Control effect of B applied alone in a corresponding dose (%): 59.3%

## CCOC(=O)COc1ncccc1Oc1cc(-n2c(=O)cc(C(F)(F)F)n(C)c2=O)c(F)cc1Cl [Epyrifenacil]
[5]
  Control effect of B applied alone in a corresponding dose (%): 38.8%
[6]
  Control effect of B applied alone in a corresponding dose (%): 50.5%

## CCn1ncc(C(=O)c2ccc(S(C)(=O)=O)c(COCC(F)(F)F)c2Cl)c1OC(=O)c1cn(C)nc1C [Fenpyrazone]
[7]
  Control effect of B applied alone in a corresponding dose (%): 13.5%
[8]
  Control effect of B applied alone in a corresponding dose (%): 33.7%

## CCN(C(=O)n1nnn(-c2ccccc2Cl)c1=O)C1CCCCC1 [Fentrazamide]
Eclipta prostrata, B 22.5 g a.i./ha
  Control effect of B applied alone in a corresponding dose (%): 35.1%
Eclipta prostrata, B 45 g a.i./ha
  Control effect of B applied alone in a corresponding dose (%): 48.9%

## CC(C)N(C(=O)COc1nnc(C(F)(F)F)s1)c1ccc(F)cc1 [Flufenacet]
[9]
  Control effect of B applied alone in a corresponding dose (%): 46.2%
[10]
  Control effect of B applied alone in a corresponding dose (%): 68.5%

## C#CCN1C(=O)COc2cc(F)c(N3C(=O)C4=C(CCCC4)C3=O)cc21 [Flumioxazin]
[11]
  Control effect of B applied alone in a corresponding dose (%): 35.0%
[5]
  Control effect of B applied alone in a corresponding dose (%): 50.6%

## CC(C)c1ccc(NC(=O)N(C)C)cc1 [Isoproturon]
[3]
  Control effect of B applied alone in a corresponding dose (%): 37.1%
[4]
  Control effect of B applied alone in a corresponding dose (%): 58.2%

## CS(=O)(=O)c1cc(C(F)(F)F)ccc1C(=O)c1cnoc1C1CC1 [Isoxaflutole]
[7]
  Control effect of B applied alone in a corresponding dose (%): 36.7%
[8]
  Control effect of B applied alone in a corresponding dose (%): 50.3%

## CN(C(=O)COc1nc2ccccc2s1)c1ccccc1 [Mefenacet]
[1]
  Control effect of B applied alone in a corresponding dose (%): 40.6%
[2]
  Control effect of B applied alone in a corresponding dose (%): 69.7%

## COc1cc(OC)nc(NC(=O)NS(=O)(=O)c2c(C3=NOCC(C)O3)c(Cl)nn2C)n1 (centres unmarked) [Metazosulfuron]
[12]
  Control effect of B applied alone in a corresponding dose (%): 51.6%
[13]
  Control effect of B applied alone in a corresponding dose (%): 69.2%

## CSc1nnc(C(C)(C)C)c(=O)n1N [Metribuzin]
[14]
  Control effect of B applied alone in a corresponding dose (%): 40.6%
[15]
  Control effect of B applied alone in a corresponding dose (%): 58.3%

## CCN(CC)C(=O)C(C)Oc1cccc2ccccc12 (centres unmarked) [Napropamide]
Descurainia sophia, B 150 g a.i./ha
  Control effect of B applied alone in a corresponding dose (%): 38.6%
Descurainia sophia, B 300 g a.i./ha
  Control effect of B applied alone in a corresponding dose (%): 55.7%

## CC(C)(C)c1nn(-c2cc(OCC#N)c(Cl)cc2Cl)c(=O)o1 [Oxadiargyl]
Solanum nigrum, B 45 g a.i./ha
  Control effect of B applied alone in a corresponding dose (%): 51.2%
Solanum nigrum, B 90 g a.i./ha
  Control effect of B applied alone in a corresponding dose (%): 64.7%

## CC(C)Oc1cc(-n2nc(C(C)(C)C)oc2=O)c(Cl)cc1Cl [Oxadiazon]
Solanum nigrum, B 30 g a.i./ha
  Control effect of B applied alone in a corresponding dose (%): 45.8%
Solanum nigrum, B 60 g a.i./ha
  Control effect of B applied alone in a corresponding dose (%): 53.5%

## CC1=C(c2ccccc2)C(=O)N(C(C)(C)c2cc(Cl)cc(Cl)c2)CO1 [Oxaziclomefone]
[16]
  Control effect of B applied alone in a corresponding dose (%): 38.9%
[12]
  Control effect of B applied alone in a corresponding dose (%): 56.8%

## CCC(CC)Nc1c([N+](=O)[O-])cc(C)c(C)c1[N+](=O)[O-] [Pendimethalin]
[1]
  Control effect of B applied alone in a corresponding dose (%): 45.5%
[2]
  Control effect of B applied alone in a corresponding dose (%): 63.2%

## CC(C)=C1OC(=O)N(c2cc(OC3CCCC3)c(Cl)cc2F)C1=O [Pentoxazone]
[13]
  Control effect of B applied alone in a corresponding dose (%): 40.5%
Eclipta prostrata, B 60 g a.i./ha
  Control effect of B applied alone in a corresponding dose (%): 61.4%

## CCCOCCN(C(=O)CCl)c1c(CC)cccc1CC [Pretilachlor]
[17]
  Control effect of B applied alone in a corresponding dose (%): 38.4%
[1]
  Control effect of B applied alone in a corresponding dose (%): 68.3%

## CSc1nc(NC(C)C)nc(NC(C)C)n1 [Prometryn]
[14]
  Control effect of B applied alone in a corresponding dose (%): 42.1%
[15]
  Control effect of B applied alone in a corresponding dose (%): 56.9%

## CCCc1ccc2nc(Cl)c(S(=O)(=O)NC(=O)Nc3nc(OC)cc(OC)n3)n2n1 [Propyrisulfuron]
[16]
  Control effect of B applied alone in a corresponding dose (%): 42.8%
[12]
  Control effect of B applied alone in a corresponding dose (%): 63.0%

## CCCN(CCC)C(=O)SCc1ccccc1 [Prosulfocarb]
Lolium multiflorum, B 300 g a.i./ha
  Control effect of B applied alone in a corresponding dose (%): 46.5%
Lolium multiflorum, B 600 g a.i./ha
  Control effect of B applied alone in a corresponding dose (%): 64.2%

## C#CCN(C)c1c(C#N)cnn1-c1nn2c(c1Cl)CCCC2 [Pyraclonil]
Eclipta prostrata, B 37.5 g a.i./ha
  Control effect of B applied alone in a corresponding dose (%): 47.0%
[17]
  Control effect of B applied alone in a corresponding dose (%): 65.8%

## COCc1cccc(C(O)c2nc(OC)cc(OC)n2)c1NS(=O)(=O)C(F)F (centres unmarked) [Pyrimisulfan]
[16]
  Control effect of B applied alone in a corresponding dose (%): 54.4%
[12]
  Control effect of B applied alone in a corresponding dose (%): 73.7%

## Cn1nc(C(F)(F)F)c(CS(=O)(=O)C2=NOC(C)(C)C2)c1OC(F)F [Pyroxasulfone]
[9]
  Control effect of B applied alone in a corresponding dose (%): 40.6%
[10]
  Control effect of B applied alone in a corresponding dose (%): 62.7%

## CCc1cccc(C)c1N(C(=O)CCl)[C@@H](C)COC [S-metolachlor]
Amaranthus retroflexus, B 150 g a.i./ha
  Control effect of B applied alone in a corresponding dose (%): 41.4%
Amaranthus retroflexus, B 300 g a.i./ha
  Control effect of B applied alone in a corresponding dose (%): 64.6%

## CC(C)N(C)S(=O)(=O)NC(=O)c1cc(-n2c(=O)cc(C(F)(F)F)n(C)c2=O)c(F)cc1Cl [Saflufenacil]
[16]
  Control effect of B applied alone in a corresponding dose (%): 50.8%
[12]
  Control effect of B applied alone in a corresponding dose (%): 69.6%

## Cc1nn(-c2cc(NS(C)(=O)=O)c(Cl)cc2Cl)c(=O)n1C(F)F [Sulfentrazone]
Solanum nigrum, B 15 g a.i./ha
  Control effect of B applied alone in a corresponding dose (%): 48.5%
Solanum nigrum, B 30 g a.i./ha
  Control effect of B applied alone in a corresponding dose (%): 60.0%

## CS(=O)(=O)c1ccc(C(=O)C2C(=O)CCCC2=O)c(Cl)c1COCC1CCCO1 (centres unmarked) [Tefuryltrione]
Ammannia arenaria, B 7.5 g a.i./ha
  Control effect of B applied alone in a corresponding dose (%): 32.9%
Ammannia arenaria, B 15 g a.i./ha
  Control effect of B applied alone in a corresponding dose (%): 55.2%

## CCNc1nc(Cl)nc(NC(C)(C)C)n1 [Terbuthylazine]
Chloris virgata, B 225 g a.i./ha
  Control effect of B applied alone in a corresponding dose (%): 35.5%
Chloris virgata, B 450 g a.i./ha
  Control effect of B applied alone in a corresponding dose (%): 52.7%

## CN1C[C@H](c2cccc(C(F)(F)F)c2)[C@@H](C(=O)Nc2ccccc2F)C1=O [Tetflupyrolimet]
Monochoria vaginalis, B 7.5 g a.i./ha
  Control effect of B applied alone in a corresponding dose (%): 43.9%
Monochoria vaginalis, B 15 g a.i./ha
  Control effect of B applied alone in a corresponding dose (%): 68.1%

## COC(=O)c1csc(C)c1S(=O)(=O)NC(=O)n1nc(OC)n(C)c1=O [Thiencarbazone-methyl]
[11]
  Control effect of B applied alone in a corresponding dose (%): 45.4%
[5]
  Control effect of B applied alone in a corresponding dose (%): 56.0%

## COC(=O)c1sccc1S(=O)(=O)NC(=O)Nc1nc(C)nc(OC)n1 [Thifensulfuron-methyl]
[18]
  Control effect of B applied alone in a corresponding dose (%): 47.5%
[19]
  Control effect of B applied alone in a corresponding dose (%): 62.1%

## COC(=O)CCNC(=O)C(C)Sc1cc(-n2c(=O)cc(C(F)(F)F)n(C)c2=O)c(F)cc1Cl (centres unmarked) [Tiafenacil]
[5]
  Control effect of B applied alone in a corresponding dose (%): 48.2%
[6]
  Control effect of B applied alone in a corresponding dose (%): 61.4%

## COc1nc(OC)nc(C(=O)c2cccc(F)c2N(C)S(=O)(=O)C(F)F)n1 [Triafamone]
[16]
  Control effect of B applied alone in a corresponding dose (%): 41.1%
[12]
  Control effect of B applied alone in a corresponding dose (%): 68.2%

## C#CCN1C(=O)C(F)(F)Oc2cc(F)c(-n3c(=O)n(C)c(=S)n(C)c3=O)cc21 [Trifludimoxazin]
[18]
  Control effect of B applied alone in a corresponding dose (%): 44.4%
[19]
  Control effect of B applied alone in a corresponding dose (%): 66.7%
